Measurements reported in US9867857B2, “Acetobacter and gluconacetobacter strains and their metabolites for use in inhibiting xanthine oxidase” (Food Industry Research And Development Institute, priority 2014, dated 2018).

Tested on: ICR mice
Assay: Experimental uricemia: potassium oxonate-induced high serum uric acid
Format: in vivo
Details: potassium oxonate 400 mg/kg + allopurinol 10 mg/kg fed, 1 h after dosing
Description: Acetobacter pasteurianus strain AHU01 was inoculated onto an M1A plate and cultured for 2 days at 30° C. The plate was washed with 7 ml of sterile water as seed broth. 0.5 ml of the seed broth was inoculated into 50 ml of a custom media (1% soy peptone, 0.2% yeast extract, 3% glucose, 0.2% malt extract, and 3% fructose) in a 250 ml triangular flask and incubated with shaking at 150 rpm for 7 days at 30° C. The medium was then collected and centrifuged at 3000 rpm for 15 minutes. Following centrifugation, the supernatant was collected, lyophilized, and freeze-dried to form a solid fermentation product for use in animal experiments.
ICR mice were used as experimental animals. Potassium oxonate, a uricase inhibitor, was used to induce a high level of uric acid in the serum of the mice. Mice were fasted for one hour and then fed saline or potassium oxonate (400 mg/kg) via a feeding tube. After one hour, potassium oxonate-treated mice were fed saline, allopurinol (10 mg/kg), or the Acetobacter pasteurianus strain AHU01 fermentation product (150 mg or 200 mg resuspended in saline per mouse) prepared as described above. Ten animals were used for each experimental group and for the control group. The animals were sacrificed after one hour and the level of uric acid in their serum was analyzed.

Compound: Oc1ncnc2[nH]ncc12 [allopurinol]
- serum uric acid concentration: 2.82 ± 0.28 mg/dL
